Assay results reported in ChEMBL document CHEMBL1135020, “5-Bromo (or chloro)-6-azido-5,6-dihydro-2' -deoxyuridine and -thymidine derivatives with potent antiviral activity” (Bioorg Med Chem Lett, 2002).
Active and inactive are the calls of the source. No cut-off for these calls is given here.

Assays:
CCRF-CEM [1] = assay: Inhibitory concentration for spectrum antiviral activity against herpes viruses; assay type: functional, cell-based; settings: Homo sapiens
CCRF-CEM [2] = assay: Test was to evaluate selectivity against individual tumor cell line Leukemia (CCRF-CEM); assay type: functional; settings: Homo sapiens
CAKI-1 = assay: Test was to evaluate selectivity against individual tumor cell lines Renal cancer (CAKI-1); assay type: functional; settings: Homo sapiens
CCRF-CEM [3] = assay: In vitro anti-HIV screen using HIV-1 infected CD4 lymphocytes (CEM cell line), determines cytotoxicity; assay type: functional, cell-based; settings: Homo sapiens
DMS-114 = assay: Test was to evaluate selectivity against individual tumor cell lines Small cell lung cancer (DMS114); assay type: functional; settings: Homo sapiens
Human gammaherpesvirus 4 = assay: In vitro antiviral activity against Epstein Barr virus (EBV) was determined; assay type: functional, organism-based
Human alphaherpesvirus 1 = assay: In vitro antiviral activity against Herpes simplex virus (HSV-1) was determined; assay type: functional, organism-based
Human alphaherpesvirus 2 = assay: In vitro antiviral activity against Herpes simplex virus (HSV-2) was determined; assay type: functional, organism-based
M19-MEL [4] = assay: Test was to evaluate selectivity against individual tumor cell lines Melanoma (M19-MEL); assay type: functional; settings: Homo sapiens
Malme-3M [5] = assay: Test was to evaluate selectivity against individual tumor cell lines Melanoma (MALME-3M); assay type: functional; settings: Homo sapiens
SK-MEL-5 [6] = assay: Test was to evaluate selectivity against individual tumor cell lines Melanoma (SK-MEL-5); assay type: functional; settings: Homo sapiens
Human alphaherpesvirus 3 = assay: In vitro antiviral activity against Varicella zoster virus (VZV) was determined; assay type: functional, organism-based
Human betaherpesvirus 5 = assay: In vitro antiviral activity against Human cytomegalovirus (HCMV) was determined; assay type: functional, organism-based
RPMI-8226 = assay: Test was to evaluate selectivity against individual tumor cell line Leukemia (RPMI-8226); assay type: functional; settings: Homo sapiens
Tumor Cell line = assay: Test was to evaluate selectivity against individual tumor cell lines; NS= No selectivity; assay type: functional, cell-based; settings: Homo sapiens
M19-MEL [7] = assay: est was to evaluate selectivity against individual tumor cell line Melanoma (M19-MEL); assay type: functional; settings: Homo sapiens
Malme-3M [8] = assay: est was to evaluate selectivity against individual tumor cell line Melanoma (MALME-3M); assay type: functional; settings: Homo sapiens
NCI-H522 = assay: Test was to evaluate selectivity against individual tumor cell line Non small cell lung cancer (NCI-H522); assay type: functional; settings: Homo sapiens
SF-268 = assay: Test was to evaluate selectivity against individual tumor cell line CNS cancer (SF-268); assay type: functional; settings: Homo sapiens
SK-MEL-5 [9] = assay: est was to evaluate selectivity against individual tumor cell line Melanoma (SK-MEL-5); assay type: functional; settings: Homo sapiens

Compound | IC50 (CCRF-CEM [1]) [µM] | GI50 (CCRF-CEM [2]) [µM] | GI50 (CAKI-1) [µM] | IC50 (CCRF-CEM [3]) [µM] | GI50 (DMS-114) [µM] | EC50 (Human gammaherpesvirus 4) [µM] | EC50 (Human alphaherpesvirus 1) [µM] | EC50 (Human alphaherpesvirus 2) [µM] | GI50 (M19-MEL [4]) [µM] | GI50 (Malme-3M [5]) [µM] | GI50 (SK-MEL-5 [6]) [µM] | EC50 (Human alphaherpesvirus 3) [µM] | EC50 (Human betaherpesvirus 5) [µM] | GI50 (RPMI-8226) [µM] | Activity (Tumor Cell line) | GI50 (M19-MEL [7]) [µM] | GI50 (Malme-3M [8]) [µM] | GI50 (NCI-H522) [µM] | GI50 (SF-268) [µM] | GI50 (SK-MEL-5 [9]) [µM]
[N-]=[N+]=NC1C(Br)C(=O)NC(=O)N1[C@H]1C[C@H](O)[C@@H](CO)O1 (some centres undefined) | 7.4 | 38 | 66.3 | 127 | 90.9 | 46 | 8.28 | 3.42 | 91.5 | 15.5 | 42.2 | 91.4 | 11.4 | 19.6 |  |  |  |  |  | 
CC1(Br)C(=O)NC(=O)N([C@H]2C[C@H](O)[C@@H](CO)O2)C1N=[N+]=[N-] (some centres undefined) | 143 |  |  | 73 |  | 16 | > 274 | > 274 |  |  |  | 104 | 15 |  | inactive |  |  |  |  | 
Nc1nc2c(ncn2COC(CO)CO)c(=O)[nH]1 [GANCICLOVIR] |  |  |  | > 390 |  |  |  |  |  |  |  |  | 0.78 |  |  |  |  |  |  | 
CC1(Cl)C(=O)NC(=O)N([C@H]2C[C@H](O)[C@@H](CO)O2)C1N=[N+]=[N-] (some centres undefined) | 135 |  |  | 113 |  | > 12.5 | > 313 | > 313 |  |  |  |  | > 50 |  | inactive |  |  |  |  | 
Nc1nc2c(ncn2COCCO)c(=O)[nH]1 [ACYCLOVIR] |  |  |  | > 440 |  | 3.96 | 3.08 | 6.16 |  |  |  |  |  |  |  |  |  |  |  | 
O=c1[nH]c(=O)n([C@H]2C[C@H](O)[C@@H](CO)O2)cc1Cl [CHLORODEOXYURIDINE] |  |  |  |  |  |  | 15 |  |  |  |  |  |  |  |  |  |  |  |  | 
[N-]=[N+]=NC1C(Cl)C(=O)NC(=O)N1[C@H]1C[C@H](O)[C@@H](CO)O1 (some centres undefined) | 54.6 | 26.3 |  | > 327 |  | 9.8 | 0.33 | 1.6 |  |  |  |  | 28.9 | 72.4 |  | 52.4 | 13.1 | 5.37 | 93.3 | 12.3
